In the experiment the target is HDAC2 (Homo sapiens, UniProt Q92769). The experiment is described as follows: HDAC2 fluorescence inhibition assay (tBoc-Lys(Ac)-AMC).
Sequence of HDAC2 (Q92769 with tags, fused parts or gaps): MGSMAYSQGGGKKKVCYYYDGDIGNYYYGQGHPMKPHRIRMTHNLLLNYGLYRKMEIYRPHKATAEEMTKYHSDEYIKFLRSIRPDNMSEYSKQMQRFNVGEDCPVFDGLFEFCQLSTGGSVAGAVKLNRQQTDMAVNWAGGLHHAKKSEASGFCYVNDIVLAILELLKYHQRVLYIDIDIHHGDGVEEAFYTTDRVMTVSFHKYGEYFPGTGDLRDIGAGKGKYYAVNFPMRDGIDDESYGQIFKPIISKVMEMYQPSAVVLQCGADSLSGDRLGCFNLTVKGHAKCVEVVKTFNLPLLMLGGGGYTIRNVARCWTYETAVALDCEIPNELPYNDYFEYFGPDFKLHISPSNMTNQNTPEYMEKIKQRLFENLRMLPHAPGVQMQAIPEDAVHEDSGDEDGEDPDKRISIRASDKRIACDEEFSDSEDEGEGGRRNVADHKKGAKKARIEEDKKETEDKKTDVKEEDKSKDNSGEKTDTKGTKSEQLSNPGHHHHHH
Broadly, the IC50 is the concentration that inhibits the measured activity by half. The compound `Nc1ccccc1NC(=O)c1ccc(Cn2ncc3cccc(F)c32)cc1` [Example 46, N-(2-aminophenyl)-4-((7-fluoro-1H-indazol-1-yl)methyl)benzamide] had an IC50 of 50 to 100 nM. Under `Nc1ccccc1NC(=O)c1ccc(Cn2cc3cccc(F)c3n2)cc1` [Example 47, N-(2-aminophenyl)-4-((7-fluoro-2H-indazol-2-yl)methyl)benzamide] stands 50 to 100 nM; under `Nc1ccccc1NC(=O)c1ccc(Cn2ncc3c(F)cccc32)cc1` [Example 48, N-(2-aminophenyl)-4-((4-fluoro-1H-indazol-1-yl)methyl)benzamide], 50 to 100 nM; under `Nc1ccccc1NC(=O)c1ccc(Cn2cc3c(F)cccc3n2)cc1` [Example 49, N-(2-aminophenyl)-4-((4-fluoro-2H-indazol-2-yl)methyl)benzamide], at most 50 nM. Under `C[C@H](c1ccc(C(=O)Nc2ccccc2N)cc1)n1cc2ccccc2n1` [Example 50, (R)-4-(1-(2H-indazol-2-yl)ethyl)-N-(2-aminophenyl)benzamide] stands 50 to 100 nM; under `C[C@@H](c1ccc(C(=O)Nc2ccccc2N)cc1)n1cc2ccccc2n1` [Example 51, (S)-4-(1-(2H-indazol-2-yl)ethyl)-N-(2-aminophenyl)benzamide], 50 to 100 nM. Under `Cc1nn(Cc2ccc(C(=O)Nc3ccccc3N)cc2)c2c(F)cccc12` [Example 52, N-(2-aminophenyl)-4-((7-fluoro-3-methyl-1H-indazol-1-yl)methyl)benzamide] stands 50 to 100 nM; under `Cc1c2cccc(F)c2nn1Cc1ccc(C(=O)Nc2ccccc2N)cc1` [Example 53, N-(2-aminophenyl)-4-((7-fluoro-3-methyl-2H-indazol-2-yl)methyl)benzamide], 50 to 100 nM.

The compound `Cc1nn(Cc2ccc(C(=O)Nc3ccccc3N)cc2)c2cccc(F)c12` [Example 54, N-(2-aminophenyl)-4-((4-fluoro-3-methyl-1H-indazol-1-yl)methyl)benzamide] came in with an IC50 of 100 to 500 nM. Under `Cc1c2c(F)cccc2nn1Cc1ccc(C(=O)Nc2ccccc2N)cc1` [Example 55, N-(2-aminophenyl)-4-((4-fluoro-3-methyl-2H-indazol-2-yl)methyl)benzamide] stands 50 to 100 nM; under `Cc1nn(Cc2ccc(C(=O)Nc3ccccc3N)cc2)c2cc(F)c(F)cc12` [Example 56, N-(2-aminophenyl)-4-((5,6-difluoro-3-methyl-1H-indazol-1-yl)methyl)benzamide], 50 to 100 nM; under `Cc1c2cc(F)c(F)cc2nn1Cc1ccc(C(=O)Nc2ccccc2N)cc1` [Example 57, N-(2-aminophenyl)-4-((5,6-difluoro-3-methyl-2H-indazol-2-yl)methyl)benzamide], 50 to 100 nM. Under `COc1ccc2cnn(Cc3ccc(C(=O)Nc4ccccc4N)cc3)c2c1` [Example 58, N-(2-aminophenyl)-4-((6-methoxy-1H-indazol-1-yl)methyl)benzamide] stands 50 to 100 nM; under `COc1ccc2cn(Cc3ccc(C(=O)Nc4ccccc4N)cc3)nc2c1` [Example 59, N-(2-aminophenyl)-4-((6-methoxy-2H-indazol-2-yl)methyl)benzamide], at most 50 nM; under `Nc1ccccc1NC(=O)c1ccc(Cn2nc(Cl)c3ccccc32)cc1` [Example 60, N-(2-aminophenyl)-4-((3-chloro-1H-indazol-1-yl)methyl)benzamide], 50 to 100 nM. `Nc1ccccc1NC(=O)c1ccc(Cn2nc3ccccc3c2Cl)cc1` [Example 61, N-(2-aminophenyl)-4-((3-chloro-2H-indazol-2-yl)methyl)benzamide]: the IC50 is at most 50 nM. The compound `Nc1ccccc1NC(=O)c1ccc(Cn2nc3ccc(C(F)(F)F)cc3c2N)cc1` [Example 62, 4-((3-amino-5-(trifluoromethyl)-2H-indazol-2-yl)methyl)-N-(2-aminophenyl)benzamide] came in with an IC50 of at most 50 nM.

The values above are taken from patent US7732475B2, “Histone deacetylase inhibitors” (Takeda San Diego, Inc., priority 2005, dated 2010).
